Values after ≈ are worked out from the molar mass of the structure shown.
Tests used:
K. pneumoniae ATCC13883 = assay: Bacterial susceptibility testing, MIC by broth microdilution (CLSI); type: cell-based; details: Klebsiella pneumoniae, ATCC13883, broth microdilution, 35° C., 18-24 h; read-out: MIC K. pneumoniae ATCC13883
How it was run: (§1)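 Broth microdilution per CLSI in cation-adjusted Mueller-Hinton broth, inoculum 3×10^5–7×10^5 CFU/mL, 2-fold serial drug dilutions in DMSO. Incubated in ambient air at 35° C for 18-24 h. MIC taken as lowest concentration preventing visible growth (OD600 nm<0.05).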

P. aeruginosa 209 PAO1 = assay: as above; type: cell-based; details: Pseudomonas aeruginosa, PAO1, broth microdilution, 35° C., 18-24 h; read-out: MIC P. aeruginosa 209 PAO1
How it was run: as §1

P. aeruginosa ATCC27835 = assay: as above; type: cell-based; details: Pseudomonas aeruginosa, ATCC27835, broth microdilution, 35° C., 18-24 h; read-out: MIC P. aeruginosa ATCC27835
How it was run: as §1

E. coli LpxC = E. coli LpxC (Escherichia coli, UniProt P0A725); assay: LpxC Binding Assay (Rapid Fire MS assay); type: biochemical
Chain of E. coli LpxC (P0A725 whole entry): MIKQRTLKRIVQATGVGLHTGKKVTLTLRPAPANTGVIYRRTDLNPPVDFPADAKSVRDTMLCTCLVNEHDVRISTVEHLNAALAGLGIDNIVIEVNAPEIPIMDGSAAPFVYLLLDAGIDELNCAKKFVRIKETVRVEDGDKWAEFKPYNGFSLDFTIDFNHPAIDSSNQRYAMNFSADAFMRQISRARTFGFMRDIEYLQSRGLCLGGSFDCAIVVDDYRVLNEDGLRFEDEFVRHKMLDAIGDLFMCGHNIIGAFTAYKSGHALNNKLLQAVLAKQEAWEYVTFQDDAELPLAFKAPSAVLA
Method: (§2) IC50 values against E. coli and P. aeruginosa LpxC are determined using a Rapid Fire MS assay as previously described J. Med. Chem. 2012, 55, 1662-1670.

P. aeruginosa LpxC = molecular target: T1, P. aeruginosa LpxC (Pseudomonas aeruginosa, UniProt P47205); assay: LpxC Binding Assay (Rapid Fire MS assay); type: biochemical
T1 sequence (P47205 1-303): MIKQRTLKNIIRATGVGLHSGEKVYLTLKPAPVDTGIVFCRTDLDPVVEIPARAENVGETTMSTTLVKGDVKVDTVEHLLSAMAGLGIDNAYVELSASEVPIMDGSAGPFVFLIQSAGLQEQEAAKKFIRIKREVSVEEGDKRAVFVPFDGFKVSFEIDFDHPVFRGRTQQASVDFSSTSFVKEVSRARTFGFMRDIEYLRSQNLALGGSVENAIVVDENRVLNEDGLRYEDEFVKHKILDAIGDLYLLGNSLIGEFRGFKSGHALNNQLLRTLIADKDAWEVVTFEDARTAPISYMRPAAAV
Method: as §2

K. pneumoniae LpxC = K. pneumoniae LpxC (Klebsiella pneumoniae subsp. pneumoniae, UniProt A6T4N9); assay: LpxC Binding Assay (Rapid Fire MS assay); type: biochemical
Chain of K. pneumoniae LpxC (A6T4N9 whole entry): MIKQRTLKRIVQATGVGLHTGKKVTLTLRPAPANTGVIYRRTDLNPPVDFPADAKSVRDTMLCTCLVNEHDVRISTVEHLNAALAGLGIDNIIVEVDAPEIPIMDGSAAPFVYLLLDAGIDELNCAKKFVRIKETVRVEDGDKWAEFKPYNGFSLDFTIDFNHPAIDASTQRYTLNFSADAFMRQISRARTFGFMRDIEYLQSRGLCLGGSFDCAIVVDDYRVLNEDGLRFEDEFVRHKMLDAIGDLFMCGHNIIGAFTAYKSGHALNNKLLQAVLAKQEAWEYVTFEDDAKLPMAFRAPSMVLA

E. coli ATCC25922 = assay: Bacterial susceptibility testing, MIC by broth microdilution (CLSI); type: cell-based; details: Escherichia coli, ATCC25922, broth microdilution, 35° C., 18-24 h; read-out: MIC E. coli ATCC25922
How it was run: as §1

Row | SMILES | MIC (K. pneumoniae ATCC13883) [µg/mL] | MIC (P. aeruginosa 209 PAO1) [µg/mL] | MIC (P. aeruginosa ATCC27835) [µg/mL] | IC50 (E. coli LpxC) [nM] | IC50 (P. aeruginosa LpxC) [nM] | IC50 (K. pneumoniae LpxC) [nM] | MIC (E. coli ATCC25922) [µg/mL]
1 | C[C@H](O)c1nccn1[C@@H](/C=C/c1ccc(-c2ccc(O[C@H]3COC[C@@H]3N)cc2)cc1)CO (racemic) [Compound 34, (S,E)-4-(4′-(((trans)-4-aminotetrahydrofuran-3-yl)oxy)-[1,1′-biphenyl]-4-yl)-2-(2-((S)-1-hydroxyethyl)-1H-imidazol-1-yl)but-3-en-1-ol] | 2 (≈ 4.59 µM) | 0.5 (≈ 1.15 µM) | 4 (≈ 9.18 µM) | 1.1 | 18.9 | 1.9 | 
2 | C[C@H](O)c1nccn1[C@@H](/C=C/c1ccc(-c2ccc(C3CC(NCCC#N)C3)cc2)cc1)CO (stereo partly drawn) [Compound 37, 3-((3-(4′-((S,E)-4-hydroxy-3-(2-((S)-1-hydroxyethyl)-1H-imidazol-1-yl)but-1-en-1-yl)-[1,1′-biphenyl]-4-yl)cyclobutyl)amino)propanenitrile] | 0.5 (≈ 1.1 µM) | 2 (≈ 4.38 µM) | 4 (≈ 8.76 µM) | < 0.5 | 15.2 | 0.7 | 
3 | CCOCC(O)COc1ccc(-c2ccc(/C=C/[C@@H](CO)n3ccnc3[C@H](C)O)cc2)cc1 (mixture of isomers) [Compound 36, (2S,E)-4-(4′-(3-ethoxy-2-hydroxypropoxy)-[1,1′-biphenyl]-4-yl)-2-(2-((S)-1-hydroxyethyl)-1H-imidazol-1-yl)but-3-en-1-ol] | 1 (≈ 2.21 µM) | 2 (≈ 4.42 µM) | 4 (≈ 8.84 µM) | < 0.5 | 21.3 | 0.8 | 
4 | COC(CN)COc1ccc(-c2ccc(/C=C/[C@@H](CO)n3ccnc3[C@H](C)O)cc2)cc1 (mixture of isomers) [Compound 27, (2S,E)-4-(4′-(3-amino-2-methoxypropoxy)-[1,1′-biphenyl]-4-yl)-2-(2-((S)-1-hydroxyethyl)-1H-imidazol-1-yl)but-3-en-1-ol] | 32 (≈ 73.1 µM) | 4 (≈ 9.14 µM) | 4 (≈ 9.14 µM) | 2.9 | 41.2 | 6.2 | 8 (≈ 18.3 µM)
5 | C[C@H](O)c1nccn1[C@@H](/C=C/c1ccc(-c2ccc(OC3CCN(CCO)CC3)cc2)cc1)CO [Compound 17, (S,E)-2-(2-((S)-1-hydroxyethyl)-1H-imidazol-1-yl)-4-(4′-((1-(2-hydroxyethyl)piperidin-4-yl)oxy)-[1,1′-biphenyl]-4-yl)but-3-en-1-ol] | 16 (≈ 33.5 µM) | 4 (≈ 8.38 µM) | 4 (≈ 8.38 µM) | 4.2 | 66.4 | 6.3 | 4 (≈ 8.38 µM)
6 | C[C@H](O)c1nccn1[C@@H](/C=C/c1ccc(-c2ccc(O[C@H]3COC[C@@H]3O)cc2)cc1)CO (racemic) [Compound 35, (trans)-4-((4′-((S,E)-4-hydroxy-3-(2-((S)-1-hydroxyethyl)-1H-imidazol-1-yl)but-1-en-1-yl)-[1,1′-biphenyl]-4-yl)oxy)tetrahydrofuran-3-ol] | 2 (≈ 4.58 µM) | 1 (≈ 2.29 µM) | 4 (≈ 9.16 µM) | < 0.5 | 8.2 | 0.9 | 
7 | C[C@H](O)c1nccn1[C@@H](/C=C/c1ccc(-c2ccc(OCCN(CCO)CCO)cc2)cc1)CO [Compound 28, 2,2′-((2-((4′—((S,E)-4-hydroxy-3-(2-((S)-1-hydroxyethyl)-1H-imidazol-1-yl)but-1-en-1-yl)-[1,1′-biphenyl]-4-yl)oxy)ethyl)azanediyl)bis(ethan-1-ol)] | 16 (≈ 33.2 µM) | 4 (≈ 8.31 µM) | 4 (≈ 8.31 µM) | 2.6 | 36.9 | 4.3 | 4 (≈ 8.31 µM)
8 | C[C@H](O)c1nccn1[C@@H](/C=C/c1ccc(-c2ccc(C3CC(N4CC(O)C4)C3)cc2)cc1)CO (stereo partly drawn) [Compound 38, 1-(3-(4′-((S,E)-4-hydroxy-3-(2-((S)-1-hydroxyethyl)-1H-imidazol-1-yl)but-1-en-1-yl)-[1,1′-biphenyl]-4-yl)cyclobutyl)azetidin-3-ol] | 2 (≈ 4.35 µM) | 2 (≈ 4.35 µM) | 2 (≈ 4.35 µM) | 0.9 | 27.5 | 1.6 | 
9 | C[C@H](O)c1nccn1[C@@H](/C=C/c1ccc(-c2ccc(OC[C@@H](O)CO)cc2F)cc1)CO [Compound 32, (S)-3-((2-fluoro-4′-((S,E)-4-hydroxy-3-(2-((S)-1-hydroxyethyl)-1H-imidazol-1-yl)but-1-en-1-yl)-[1,1′-biphenyl]-4-yl)oxy)propane-1,2-diol] | 8 (≈ 18.1 µM) | 4 (≈ 9.04 µM) | 4 (≈ 9.04 µM) | 1 | 13.4 | 1.8 | 2 (≈ 4.52 µM)
10 | C[C@H](O)c1nccn1[C@@H](/C=C/c1ccc(-c2ccc(C3CC(O)C3)cc2)cc1)CO (stereo partly drawn) [Compound 39, 3-(4′-((S,E)-4-hydroxy-3-(2-((S)-1-hydroxyethyl)-1H-imidazol-1-yl)but-1-en-1-yl)-[1,1′-biphenyl]-4-yl)cyclobutan-1-ol] | 0.5 (≈ 1.24 µM) | 1 (≈ 2.47 µM) | 4 (≈ 9.89 µM) | < 0.5 | 12.6 | 0.6 | 
11 | C[C@H](O)c1nccn1[C@@H](/C=C/c1ccc(-c2ccc(OCC(N)CO)cc2)cc1)CCO (mixture of isomers) [Compound 19, (3R,E)-5-(4′-(2-amino-3-hydroxypropoxy)-[1,1′-biphenyl]-4-yl)-3-(2-((S)-1-hydroxyethyl)-1H-imidazol-1-yl)pent-4-en-1-ol] | 64 (≈ 146 µM) | 4 (≈ 9.14 µM) | 4 (≈ 9.14 µM) | 5.1 | 62.3 | 8 | 8 (≈ 18.3 µM)
12 | C[C@H](O)c1nccn1[C@@H](/C=C/c1ccc(-c2ccc(OC[C@@H](O)CO)cc2)cc1)CO [Compound 24, (S)-3-((4′-((S,E)-4-hydroxy-3-(2-((S)-1-hydroxyethyl)-1H-imidazol-1-yl)but-1-en-1-yl)-[1,1′-biphenyl]-4-yl)oxy)propane-1,2-diol] | 8 (≈ 18.8 µM) | 2 (≈ 4.71 µM) | 2 (≈ 4.71 µM) | 0.5 | 17.5 | 1.1 | 2 (≈ 4.71 µM)
13 | C[C@H](O)c1nccn1[C@@H](/C=C/c1ccc(-c2ccc(OC[C@@H](O)CN(C)C)cc2)cc1)CO [Compound 26, (S,E)-4-(4′-((S)-3-(dimethylamino)-2-hydroxypropoxy)-[1,1′-biphenyl]-4-yl)-2-(2-((S)-1-hydroxyethyl)-1H-imidazol-1-yl)but-3-en-1-ol] | 2 (≈ 4.43 µM) | 4 (≈ 8.86 µM) | 8 (≈ 17.7 µM) | 0.6 | 17.4 | 1.4 | 
14 | C[C@H](O)c1nccn1[C@@H](/C=C/c1ccc(-c2ccc(OCC(CO)CO)cc2)cc1)CO [Compound 33, 2-(((4′-((S,E)-4-hydroxy-3-(2-((S)-1-hydroxyethyl)-1H-imidazol-1-yl)but-1-en-1-yl)-[1,1′-biphenyl]-4-yl)oxy)methyl)propane-1,3-diol] | 8 (≈ 18.2 µM) | 2 (≈ 4.56 µM) | 4 (≈ 9.12 µM) | 1 | 11.9 | 1.6 | 
15 | C[C@H](O)c1nccn1[C@@H](/C=C/c1ccc(-c2ccc(OC[C@H](O)CN)cc2)cc1)CO [Compound 29, (S,E)-4-(4′-((R)-3-amino-2-hydroxypropoxy)-[1,1′-biphenyl]-4-yl)-2-(2-((S)-1-hydroxyethyl)-1H-imidazol-1-yl)but-3-en-1-ol] | 64 (≈ 151 µM) | 8 (≈ 18.9 µM) | 4 (≈ 9.44 µM) | 5.9 | 120 | 9.1 | 32 (≈ 75.6 µM)
16 | C[C@H](O)c1nccn1[C@@H](/C=C/c1ccc(-c2ccc(OC3CCN(CCO)CC3)cc2)cc1)CCO [Compound 18, (R,E)-3-(2-((S)-1-hydroxyethyl)-1H-imidazol-1-yl)-5-(4′-((1-(2-hydroxyethyl)piperidin-4-yl)oxy)-[1,1′-biphenyl]-4-yl)pent-4-en-1-ol] | 16 (≈ 32.5 µM) | 4 (≈ 8.14 µM) | 4 (≈ 8.14 µM) | 3.6 | 50.1 | 5.4 | 8 (≈ 16.3 µM)
17 | C[C@H](O)c1nccn1C/C=C/c1ccc(-c2ccc(OC3CCN(CC(O)CO)CC3)cc2)cc1 (stereo partly drawn) [Compound 2, 3-(4-((4′-((E)-3-(2-((S)-1-hydroxyethyl)-1H-imidazol-1-yl)prop-1-en-1-yl)-[1,1′-biphenyl]-4-yl)oxy)piperidin-1-yl)propane-1,2-diol] | 2 (≈ 4.19 µM) | 4 (≈ 8.38 µM) | 4 (≈ 8.38 µM) | 17 | 15.5 |  | 1 (≈ 2.09 µM)
